Data published in the supplement of paper PMC10307832.

Columns and labels:
Assay in all cases: relative viability (nuclei count vs DMSO), 5 days (fraction); higher = more cells survive
[1] = compound: CS(=O)(=O)c1ccc(-c2cnc(N)c(C(=O)Nc3ccccc3)n2)cc1 [VE-821] + CC(C)C[C@H](NC(=O)[C@H](Cc1ccccc1)NC(=O)c1cnccn1)B(O)O [Bortezomib] (partner 0.002 µM)
In short: (§1)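 Lung cancer cell lines were seeded in 1536-well plates and dosed by pin tool the next day, with either a single drug or a fixed anchor-drug dose combined with five library-drug doses (not always all listed) spaced in √10 steps. Five days later, one step fixed the cells and stained their nuclei (final 0.05% Triton X-100, 1% formaldehyde, 1 ug/ml Hoechst), and nuclei were counted on 4× images. Relative viability is the nuclei count in treated wells divided by the count in vehicle wells, and each value is the median of duplicate plates.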

[2] = compound: CS(=O)(=O)c1ccc(-c2cnc(N)c(C(=O)Nc3ccccc3)n2)cc1 [VE-821] + COc1cc2c(Oc3ccc(NC(=O)C4(C(=O)Nc5ccc(F)cc5)CC4)cc3F)ccnc2cc1OCCCN1CCOCC1 [Foretinib] (partner 0.25 µM)
In short: as §1

[3] = compound: CS(=O)(=O)c1ccc(C(=O)Nc2ccc(Cl)c(-c3ccccn3)c2)c(Cl)c1 [Vismodegib] + Cc1cc(Nc2cc(N3CCN(C)CC3)nc(Sc3ccc(NC(=O)C4CC4)cc3)n2)n[nH]1 [Tozasertib] (partner 0.1 µM)
In short: as §1

[4] = compound: N#CC[C@H](C1CCCC1)n1cc(-c2ncnc3[nH]ccc23)cn1 [Ruxolitinib] + O=C(CCCCCCC(=O)Nc1ccccc1)NO [Vorinostat] (partner 1 µM)
In short: as §1

Cell Line	relative viability ([1]; first compound 0.08 µM)	relative viability ([1]; first compound 0.253 µM)	relative viability ([1]; first compound 0.8 µM)	relative viability ([1]; first compound 2.53 µM)	relative viability ([1]; first compound 8 µM)	relative viability ([2]; first compound 0.08 µM)	relative viability ([2]; first compound 0.253 µM)	relative viability ([2]; first compound 0.8 µM)	relative viability ([2]; first compound 2.53 µM)	relative viability ([2]; first compound 8 µM)	relative viability ([3]; first compound 0.08 µM)	relative viability ([3]; first compound 0.253 µM)	relative viability ([3]; first compound 0.8 µM)	relative viability ([3]; first compound 2.53 µM)	relative viability ([3]; first compound 8 µM)	relative viability ([4]; first compound 0.08 µM)	relative viability ([4]; first compound 0.253 µM)	relative viability ([4]; first compound 0.8 µM)	relative viability ([4]; first compound 2.53 µM)	relative viability ([4]; first compound 8 µM)
LCLC-103H	1.12	0.938	1.01	1.06	1.09	0.926	0.876	0.82	0.914	0.572	0.503	0.506	0.489	0.437	0.446	0.89	0.795	0.806	0.735	0.675
LOU-NH91	0.529	0.906	0.527	0.555	0.377	0.982	0.946	0.86	0.986	0.928	0.622	0.688	0.644	0.656	0.675	0.864	0.886	0.952	0.897	0.917
LU99A	1.11	1.23	1.16	1.08	0.514	0.903	0.763	0.802	0.851	0.462	0.301	0.248	0.239	0.268	0.269	0.537	0.482	0.542	0.416	0.426
LXF-289	1.04	1.07	1.1	1.08	1.11	1.02	0.991	0.98	1.04	1.07	0.22	0.185	0.2	0.224	0.213	0.744	0.818	0.793	0.714	0.705
NCI-H23	1	0.991	1.14	0.829	0.323	1.19	1.13	0.889	0.688	0.39	0.362	0.425	0.386	0.297	0.301	0.668	0.628	0.763	0.642	0.43
NCI-H322M	1.24		1.33	1.25	1.08	1.07	0.879	0.89	0.858	0.393	0.483	0.485	0.503	0.473	0.443	0.951	1.01	1.05	1.3	1.4
NCI-H441	0.622	0.967	0.552	0.705	0.405	1.36	1.04	1.19	1.04	0.928	0.576	0.63	0.567	0.524	0.584	0.648	0.571	0.907	0.689	0.747
NCI-H460	1.51	1.05	0.977	0.823	0.248	1.02	0.979	0.841	0.919	0.17	0.55	0.447	0.377	0.367	0.298	0.847	0.774	0.819	0.599	0.516
NCI-H520	0.603	0.697		0.57	0.47	0.853	0.727	0.454	1.45	0.762	0.392	0.452	0.481	0.385	0.433	0.758	0.858	0.752	0.844	0.654
NCI-H596	1.21	1.02	1.08	1.09	1.09	0.867	0.617	0.928	0.905	0.607	1	0.814	0.932	0.838	0.769	0.713	0.638	0.743	0.589	0.454
NCI-H647	1.39	0.825	0.804	1.08	0.569	1.51	1.29	1.01	1.14	0.801	0.253	0.205	0.265	0.188	0.227	0.694	0.729	0.683	0.538	0.286
NCI-H650	0.828	0.709	0.961	0.753	1.02	1.04	1.05	1.08	1.04	1.07	0.725	0.778	0.705	0.743	0.718	0.532	0.423	0.406	0.44	0.429
NCI-H661	0.885	0.953	0.767	0.895	0.72	0.991	1.04	0.95	1.08	0.935	0.352	0.339	0.353	0.359	0.365	0.833	0.822	0.839	0.792	0.802
NCI-H727	0.872	0.817	0.741	0.761	0.493	1.27	0.982	0.823	0.789	0.405	0.785	0.619	0.644	0.53	0.62	1.2	1.19	1.4	1.12	1.49
NCI-H838	0.912	0.855	0.485	1.22	0.652	1.21	0.946	0.892	1.13	0.877	0.263	0.276	0.263	0.283	0.29	0.734	0.669	0.685	0.535	0.349
NCI-H1355	1.26	1.15	1.09	1.27	0.718	1.04	0.942	0.768	1.01	0.729	0.568	0.557	0.613	0.577	0.548	0.69	0.564	0.691	0.6	0.536

Cell Line	relative viability ([1]; first compound 0.08 µM)	relative viability ([1]; first compound 0.253 µM)	relative viability ([1]; first compound 0.8 µM)	relative viability ([1]; first compound 2.53 µM)	relative viability ([1]; first compound 8 µM)	relative viability ([2]; first compound 0.08 µM)	relative viability ([2]; first compound 0.253 µM)	relative viability ([2]; first compound 0.8 µM)	relative viability ([2]; first compound 2.53 µM)	relative viability ([2]; first compound 8 µM)	relative viability ([3]; first compound 0.08 µM)	relative viability ([3]; first compound 0.253 µM)	relative viability ([3]; first compound 0.8 µM)	relative viability ([3]; first compound 2.53 µM)	relative viability ([3]; first compound 8 µM)	relative viability ([4]; first compound 0.08 µM)	relative viability ([4]; first compound 0.253 µM)	relative viability ([4]; first compound 0.8 µM)	relative viability ([4]; first compound 2.53 µM)	relative viability ([4]; first compound 8 µM)
NCI-H1437	0.504	0.523	0.46	0.592	0.4	1.3	1.25	1.16	1.34	1.24	0.395	0.398	0.396	0.38	0.392	1.14	1.04	1.1	0.859	0.627
NCI-H1650	0.194	0.195	0.339	0.187	0.213	1.15	1.11	0.718	1.39	0.692	0.413	0.365	0.315	0.286	0.34	0.558	0.557	0.708	0.551	0.57
NCI-H1651	0.978	0.964	1.07	1.04	0.921	0.72	0.838	0.662	0.885	1.02	0.617	0.704	0.643	0.604	0.704	0.601	0.52	0.523	0.472	0.573
NCI-H1666	0.942	0.864	0.755	0.736	0.549	0.97	1.02	1.04	1.03	0.783	0.564	0.684	0.591	0.585	0.7	1.05	1.07	1.1	1.08	1.14
NCI-H1734	1.3	0.873	0.878	0.879	0.611	0.972	0.854	0.805	1.02	0.722	0.249	0.281	0.267	0.263	0.263	0.886	0.806	0.902	0.797	0.863
NCI-H1755	1.01	0.95	0.941	0.898	0.79	0.956	0.855	0.845	0.92	0.765	0.568	0.575	0.534	0.556	0.524	0.749	0.713	0.766	0.712	0.61
NCI-H1915	0.967	0.958	1.03	0.999	0.962	1.15	1.08	1.03	1.09	0.912	0.431	0.386	0.466	0.413	0.414	0.467	0.488	0.565	0.461	0.332
NCI-H1975	0.482	0.333	0.381	0.393	0.347	0.977	0.89		0.82	0.709	0.892	0.744	0.733	0.643	0.261	0.736	0.633	0.691	0.59	0.483
NCI-H1993	1.25	0.869	0.967	1.16	0.812	0.84	0.736	0.595	0.737	0.724	0.529	0.548	0.584	0.632	0.593	0.81	0.754	0.102	0.822	0.75
NCI-H2009	0.952	0.967	0.993	1.07	0.814	1.34	1.26	1.1	1.28	1.23	0.727	0.674	0.834	0.817	0.733	0.715	0.71	0.722	0.631	0.507
NCI-H2023	1.08	0.902	0.763	0.549	0.218	0.998	0.785	0.511	0.383	0.343	0.356	0.341	0.348	0.315	0.227	0.661	0.667	0.95	0.581	0.798
NCI-H2085	1.04	0.929	0.892	1.12	0.98	1.05	0.915	0.863	1.01	0.812	0.835	0.849	0.85	0.698	0.621	0.865	0.802	0.891	0.667	0.695
NCI-H2087	0.996	1.07	1.16	0.77	0.937	1.12	0.982	1.22	1.33	1	0.258	0.306	0.212	0.185	0.234	0.868		0.752	0.686	0.705
NCI-H2126	1.22	1.04	1.11	1.04	1.09	1.38	1.1	1.21	1.1	0.764	0.841	0.814	0.849	0.772	0.794	0.771	0.755	0.853	0.843	0.847
NCI-H2228	1.23	0.931	1.2	0.824	0.635	0.945	0.849	0.946	0.749	0.567	0.218	0.277	0.23	0.217	0.265	0.595	0.717	0.9	0.69	0.37
NCI-H2347	1.07	0.881	0.729	0.876	0.878	0.542	0.995	0.633	1.03	0.946	0.589	0.574	0.554	0.485	0.574	0.68	0.546	0.568	0.566	0.622
